Test results from EPA's CvTdb concentration-time database.
Values joined by “and” are separate entries in the source; they are usually repeats but may differ in a detail not shown here. Equal entries are not always repeated.

Tests used:
[1] = test system: Rat; assay: concentration in plasma after dosing; settings: dosed: Phenolphthalein, 25 mg/kg, iv, F344
[2] = test system: Rat; assay: concentration in plasma after dosing; settings: 12 h; dosed: Phenolphthalein; 25 mg/kg; iv; Female; F344
[3] = test system: Rat; assay: concentration in plasma after dosing; settings: dosed: Phenolphthalein, 25 mg/kg, iv, Male, F344
[4] = test system: Rat; assay: concentration in plasma after dosing; settings: dosed: Phenolphthalein, 25 mg/kg, iv, Male, F344; remark: listed apart in the source
[5] = test system: Rat; assay: concentration in plasma after dosing; settings: 16 h; dosed: Phenolphthalein; 25 mg/kg; iv; Female; F344
[6] = test system: Rat; assay: concentration in plasma after dosing; settings: dosed: Phenolphthalein, 25 mg/kg, iv, Female, F344
[7] = test system: Rat; assay: concentration in plasma after dosing; settings: dosed: Phenolphthalein, 25 mg/kg, iv, Female, F344; remark: listed apart in the source
[8] = test system: Rat; assay: concentration in plasma after dosing; settings: dosed: Phenolphthalein, 25 mg/kg, iv, Female, F344; remark: listed apart in the source
[9] = test system: Rat; assay: concentration in plasma after dosing; settings: dosed: Phenolphthalein, 25 mg/kg, iv, Male, F344; remark: listed apart in the source
[10] = test system: Rat; assay: concentration in plasma after dosing; settings: dosed: Phenolphthalein, 25 mg/kg, iv, Female, F344; remark: listed apart in the source
[11] = test system: Rat; assay: concentration in plasma after dosing; settings: 16 h; dosed: Phenolphthalein; 25 mg/kg; iv; Female; F344; remark: listed apart in the source
[12] = test system: Rat; assay: concentration in plasma after dosing; settings: dosed: Phenolphthalein, 25 mg/kg, iv, Male, F344; remark: listed apart in the source
[13] = test system: Rat; assay: concentration in plasma after dosing; settings: dosed: Phenolphthalein, 25 mg/kg, iv, Female, F344; remark: listed apart in the source
[14] = test system: Rat; assay: concentration in plasma after dosing; settings: 16 h; dosed: Phenolphthalein; 25 mg/kg; iv; Male; F344
[15] = test system: Rat; assay: concentration in plasma after dosing; settings: dosed: Phenolphthalein, 25 mg/kg, iv, Female, F344; remark: listed apart in the source
[16] = test system: Rat; assay: concentration in plasma after dosing; settings: dosed: Phenolphthalein, 25 mg/kg, iv, Female, F344; remark: listed apart in the source
[17] = test system: Rat; assay: concentration in plasma after dosing; settings: dosed: Phenolphthalein, 25 mg/kg, iv, Female, F344; remark: listed apart in the source
[18] = test system: Rat; assay: concentration in plasma after dosing; settings: dosed: Phenolphthalein, 25 mg/kg, iv, Female, F344; remark: listed apart in the source
[19] = test system: Rat; assay: concentration in plasma after dosing; settings: dosed: Phenolphthalein, 25 mg/kg, iv, Male, F344; remark: listed apart in the source
[20] = test system: Rat; assay: concentration in plasma after dosing; settings: dosed: Phenolphthalein, 25 mg/kg, iv, Female, F344; remark: listed apart in the source
[21] = test system: Rat; assay: concentration in plasma after dosing; settings: dosed: Phenolphthalein, 25 mg/kg, iv, Male, F344; remark: listed apart in the source
[22] = test system: Rat; assay: concentration in plasma after dosing; settings: 16 h; dosed: Phenolphthalein; 25 mg/kg; iv; Male; F344; remark: listed apart in the source
[23] = test system: Rat; assay: concentration in plasma after dosing; settings: dosed: Phenolphthalein, 25 mg/kg, iv, Female, F344; remark: listed apart in the source
[24] = test system: Rat; assay: concentration in plasma after dosing; settings: dosed: Phenolphthalein, 25 mg/kg, iv, Male, F344; remark: listed apart in the source
[25] = test system: Rat; assay: concentration in plasma after dosing; settings: dosed: Phenolphthalein, 25 mg/kg, iv, Male, F344; remark: listed apart in the source
[26] = test system: Rat; assay: concentration in plasma after dosing; settings: dosed: Phenolphthalein, 25 mg/kg, iv, Male, F344; remark: listed apart in the source
[27] = test system: Rat; assay: concentration in plasma after dosing; settings: dosed: Phenolphthalein, 25 mg/kg, iv, Male, F344; remark: listed apart in the source
[28] = test system: Rat; assay: concentration in plasma after dosing; settings: dosed: Phenolphthalein, 25 mg/kg, iv, Female, F344; remark: listed apart in the source
[29] = test system: Rat; assay: concentration in plasma after dosing; settings: dosed: Phenolphthalein, 25 mg/kg, iv, Female, F344; remark: listed apart in the source
[30] = test system: Rat; assay: concentration in plasma after dosing; settings: dosed: Phenolphthalein, 25 mg/kg, iv, Male, F344; remark: listed apart in the source
[31] = test system: Rat; assay: concentration in plasma after dosing; settings: dosed: Phenolphthalein, 25 mg/kg, iv, Male, F344; remark: listed apart in the source
[32] = test system: Rat; assay: concentration in plasma after dosing; settings: dosed: Phenolphthalein, 25 mg/kg, iv, Male, F344; remark: listed apart in the source
[33] = test system: rat; assay: amount in expired air after dosing (umol); settings: dosed: methanol, 100 mg/kg, iv, male, CDF(F344)/CrlBR
[34] = test system: rat; assay: concentration in blood after dosing; settings: dosed: furan, inhalation, duration: 4 hr, male, Fischer-344

O=C1OC(c2ccc(O)cc2)(c2ccc(O[C@@H]3O[C@H](C(=O)O)[C@@H](O)[C@H](O)[C@H]3O)cc2)c2ccccc21 (stereo not given in full) [Phenolphthalein Glucuronide]
concentration in plasma [ng/mL], [1]
Settings	Female	Male
1 h	6220	13200
2 h	22800	1490
2.5 min	26600	4740
3 h	47900	7190
4 h	50600	4000
5 h	17900	2270
5 min	49000	22300
6 h	18700	11800
7 h	35300	4350
8 h	16900	3650
10 h	11900	5440
12 h	24900	8240
16 h	8190	9210
20 h	16200	8080
24 h	9270	6210

Settings	concentration in plasma [ng/mL]
[2]	14800
[5]	21500
[11]	8150
[14]	7180
[22]	37500

Settings	concentration in plasma [ng/mL]
[3], 3 h	32000
[3], 12 h	10500
[4], 2.5 min	2320
[4], 20 h	8550
[6], 2 h	16300
[6], 8 h	22700
[7], 2.5 min	10400
[7], 20 h	8670
[8], 4 h	18400
[8], 7 h	19500
[9], 1 h	19000
[9], 6 h	35900
[10], 5 h	16900
[10], 10 h	13300
[12], 4 h	23300
[12], 7 h	13100
[13], 4 h	14000
[13], 7 h	13700
[15], 3 h	39000
[15], 12 h	18000
[16], 5 min	3250
[16], 24 h	5140
[17], 2.5 min	15100
[17], 20 h	9500
[18], 5 h	16500
[18], 10 h	11300
[19], 4 h	8240
[19], 7 h	14400
[20], 1 h	9080
[20], 6 h	15200
[21], 2 h	7950
[21], 8 h	9110
[23], 5 min	69000
[23], 24 h	14700
[24], 5 min	21100
[24], 24 h	5330
[25], 5 min	23700
[25], 24 h	6100
[26], 5 h	10900
[26], 10 h	10700
[27], 3 h	6590
[27], 12 h	17300
[28], 2 h	14600
[28], 8 h	17000
[29], 1 h	22300
[29], 6 h	8560
[30], 5 h	8040
[30], 10 h	11300
[31], 2 h	22600
[31], 8 h	18600
[32], 1 h	18700
[32], 6 h	10700

O=C1OC(c2ccc(O)cc2)(c2ccc(O[C@@H]3O[C@H](C(=O)O)[C@@H](O)[C@H](O)[C@H]3O)cc2)c2ccccc21 (stereo not given in full) [Phenolphthalein glucuronide]
[1], Male
Settings	concentration in plasma [ng/mL]
2.5 min	6980
20 h	8900

O=C=O [carbon dioxide]
[33]
Settings	amount in expired air
0.2199 h	1.76
0.5362 h	6.28
0.9412 h	13.1
1.448 h	25.8
1.93 h	37.7
2.933 h	81.5
4.445 h	151
5.995 h	221
8.01 h	278
10.01 h	322
12.03 h	335
15.08 h	344

c1ccoc1 [furan]
[34]
Settings	concentration in blood
0.1053 h, 52 ppm	111 ng/mL
0.1054 h, 52 ppm	93 ng/mL
0.1745 h, 107 ppm	142 ng/mL
0.3024 h, 107 ppm	101 ng/mL
0.3025 h, 107 ppm	88.4 ng/mL
0.5398 h, 208 ppm	98.4 ng/mL
0.54 h, 208 ppm	82.3 ng/mL
0.7855 h, 208 ppm	47 ng/mL
0.7856 h, 208 ppm	41.2 ng/mL
0.7857 h, 208 ppm	35.7 ng/mL
130 s, 107 ppm	387 ng/mL and 348 ng/mL
131 s, 107 ppm	309 ng/mL
132 s, 208 ppm	945 ng/mL
133 s, 208 ppm	772 ng/mL and 654 ng/mL
